Experimental data: patent publication US20180126014A1, “COMPOSITIONS FOR ENHANCING DELIVERY OF AGENTS ACROSS THE BLOOD BRAIN BARRIER AND METHODS OF USE THEREOF” (Yale University, priority 2015, published 2018)

Legend:
[1] = system: intracranial GL261 tumors; settings: NPs co-loaded with IR780 and BBB modulator, three consecutive days, imaged 24 h after last injection
Experimental: For the intracranial GL261 tumor implantation, 5-6 week old female C57BL6 mice were anesthetized via intraperitoneal injection of ketamine hydrochloride (75 mg/kg, Abbot Laboratories) and xylazine (7.5 mg/kg, Phoenix Pharmaceutical) in sterile saline. Twenty thousand GL261 cells in 2 μL of PBS were injected into the right striatum (1.8 mm lateral to the bregma and 3 mm of depth) using a stereotactic fixation device with mouse adaptor. For the subcutaneous GL261 xenograft model, 1×10^6 GL261 cells in 100 μL of PBS were inoculated subcutaneously into the right flank region of female C57BL6 mice. For the intracranial U87-MG glioma model, 1×10^6 U87-MG cells in 2 μL of PBS was injected into the right striatum of BALB/c nude mice using the same procedures.
(§1) Then the hair on the head was shaved and mice were anesthetized and imaged using the IVIS fluorescence imaging system on day 20. Finally, mice were sacrificed and organs resected for further imaging.
At 24 h after the last injection, the hair on the head was shaved and mice were anesthetized and imaged using an IVIS imaging system (Xenogen). Finally, mice were sacrificed and organs resected for further imaging. The fluorescence signal intensity of excised organs was quantified using Living Image 3.0.
as §1

[2] = system: MDA-MB-231Br brain metastases; assay: Paclitaxel-loaded ABTT NPs in MDA-MB-231Br derived brain metastasis model; type: in vivo, mice; settings: three times a week for three weeks
Experimental: Nanoparticles were prepared similarly to those described above for Examples 1 and 6, but including the CTX targeting moiety as described in Example 6. […] Briefly, for synthesis of paclitaxel-loaded NPs, 100 mg mIII-62% in 2 mL DCM containing 2.5 mg LEXISCAN® and 20 mg paclitaxel was added dropwise to 4 mL 2.5% PVA under vortex and sonicated to form a oil/water emulsion. The emulsion was poured into a beaker containing 0.3% PVA and stirred for 3 h to evaporate DCM. NPs were collected by centrifugation at 20000 rpm for 30 min. The precipitate was suspended in PBS and reacted with thiolated CTX […] at room temperature. Nanoparticles were collected, suspended in H2O and lyophilized for storage and characterization.
In both studies, mice were treated with nanoparticles for three times a week for three weeks at a dose of 2 mg/mouse. It is believed that enhanced efficacy can be achieved with a higher dose treatment (maximum tolerated dose >15 mg per treatment) or with extended treatment time.

A3 adenosine receptor = molecular target: T1, A3 adenosine receptor (Homo sapiens, UniProt P0DMS8); settings: cited from earlier work
T1 sequence (P0DMS8 1-318): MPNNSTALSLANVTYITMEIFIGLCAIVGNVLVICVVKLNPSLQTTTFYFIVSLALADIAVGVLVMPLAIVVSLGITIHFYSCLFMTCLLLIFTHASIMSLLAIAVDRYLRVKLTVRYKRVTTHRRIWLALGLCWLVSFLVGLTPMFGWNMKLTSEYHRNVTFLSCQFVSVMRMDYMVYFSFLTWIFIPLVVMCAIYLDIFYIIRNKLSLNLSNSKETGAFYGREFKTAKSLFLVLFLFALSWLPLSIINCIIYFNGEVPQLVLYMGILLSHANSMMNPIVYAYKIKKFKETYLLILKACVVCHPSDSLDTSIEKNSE

A2B adenosine receptor = molecular target: T2, A2B adenosine receptor (Homo sapiens, UniProt P29275); settings: cited from earlier work
T2 sequence (P29275 1-332): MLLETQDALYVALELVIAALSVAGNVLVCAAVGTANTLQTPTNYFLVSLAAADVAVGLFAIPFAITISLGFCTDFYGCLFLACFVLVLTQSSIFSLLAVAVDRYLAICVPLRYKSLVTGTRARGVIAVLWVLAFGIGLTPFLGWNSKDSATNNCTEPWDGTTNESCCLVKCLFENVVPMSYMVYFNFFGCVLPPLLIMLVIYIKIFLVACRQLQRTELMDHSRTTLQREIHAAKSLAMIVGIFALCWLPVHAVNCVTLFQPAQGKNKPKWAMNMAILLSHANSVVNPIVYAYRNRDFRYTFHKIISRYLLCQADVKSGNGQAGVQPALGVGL

A1 adenosine receptor = molecular target: T3, A1 adenosine receptor (Homo sapiens, UniProt P30542); settings: cited from earlier work
T3 sequence (P30542 1-326): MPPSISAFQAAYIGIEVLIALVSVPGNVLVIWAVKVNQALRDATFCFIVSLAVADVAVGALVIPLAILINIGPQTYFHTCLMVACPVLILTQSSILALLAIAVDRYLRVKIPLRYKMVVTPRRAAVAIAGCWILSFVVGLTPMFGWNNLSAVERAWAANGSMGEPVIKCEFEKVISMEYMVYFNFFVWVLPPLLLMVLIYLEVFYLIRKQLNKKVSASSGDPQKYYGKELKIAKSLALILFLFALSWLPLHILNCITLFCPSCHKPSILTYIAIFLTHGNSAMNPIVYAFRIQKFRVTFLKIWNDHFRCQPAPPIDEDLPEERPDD

Compound: CCNC(=O)[C@H]1O[C@@H](n2cnc3c(N)ncnc32)[C@H](O)[C@@H]1O [NECA, 1-(6-Amino-9H-purin-9-yl)-1-deoxy-N-ethyl-β-D-ribofuranuronamide]
- delivery of CTX-mHph2-III-62% NPs to the brain with encapsulated BBB modulator [1]: significantly enhanced delivery

Compound: CC(=O)O[C@H]1C(=O)[C@@]2(C)[C@H]([C@H](OC(=O)c3ccccc3)[C@]3(O)C[C@H](OC(=O)[C@H](O)[C@@H](NC(=O)c4ccccc4)c4ccccc4)C(C)=C1C3(C)C)[C@]1(OC(C)=O)CO[C@@H]1C[C@@H]2O [free paclitaxel, paclitaxel]
- median survival time [2]: 45 days

Compound: CNC(=O)c1cnn(-c2nc(N)c3ncn([C@@H]4O[C@H](CO)[C@@H](O)[C@H]4O)c3n2)c1 [Regadenoson, 2-{4-[(methylamino)carbonyl]-1H-pyrazol-1-yl}adenosine]
- affinity (A3 adenosine receptor): weak, if any
- delivery of CTX-mHph2-III-62% NPs to the brain with encapsulated BBB modulator [1]: significantly enhanced delivery
- affinity (A2B adenosine receptor): weak, if any
- Ki (A1 adenosine receptor): > 16.5 µM
- lower affinity for the A1 adenosine receptor than for A2A (A1 adenosine receptor): at least 10 fold

Compound: Nc1cc(N2CCCCC2)nc(N)[n+]1[O-] [minoxidil]
- delivery of CTX-mHph2-III-62% NPs to the brain with encapsulated BBB modulator [1]: significantly enhanced delivery
